Source: patent publication US20250311689A1, “SEEDLING GERMINATION AND GROWTH CONDITIONS” (PIONEER HI-BRED INTERNATIONAL, INC., priority 2022, published 2025)
Values joined by “and” are separate entries in the source; they are usually repeats but may differ in a detail not shown here. Identical values can stand only once.

Tests used:
[1] = system: Pioneer inbred ED85E and GR013D seedlings / leaf segments; assay: Sugar (maltose) seedling pre-treatment, leaf transformation (Table 27); type: in vivo, maize
[2] = system: Pioneer inbred ED85E seedlings / leaf segments; assay: Gibberellic acid inhibitor seedling pre-treatment, leaf transformation (Table 24); type: in vivo, maize
[3] = system: teff (Eragrostis tef) seedlings; assay: Ancymidol pre-treatment during seed germination and seedling growth, teff; type: in vivo
[4] = system: maize inbred seedlings with pre-integrated target site 45 / leaf segments; assay: Seedling pre-treatment with ancymidol, Agrobacterium-mediated site-specific integration (Table 22); type: in vivo; conditions: 90AE medium (900 + 2 mg/l ancymidol); 30 seedlings; PHP90842:PHP93925 9:1; no untreated comparison
[5] = system: Japonica rice (Oryza sativa var Kitaake) seedlings; assay: Ancymidol pre-treatment during seed germination and seedling growth, rice; type: in vivo
[6] = system: pearl millet (Pennisetum glaucum) seedlings; assay: Ancymidol pre-treatment during seed germination and seedling growth, pearl millet; type: in vivo
[7] = system: Pioneer inbred ED85E seedlings / leaf segments; assay: Cytokinin seedling pre-treatment, leaf transformation (Table 25); type: in vivo, maize; conditions: for # T0 plants / # culture response (2 wk) / # culture response (4 wk) / T-DNA score (0-5) / TXN %: 21 seedlings, PHP97334
[8] = system: Pioneer inbred GR0112 seedlings / leaf segments; assay: Fipexide seedling pre-treatment, leaf transformation (Table 26); type: in vivo, maize; conditions: for # culture response (2 wk) / # culture response (4 wk) / T-DNA score (0-5): 42 seedlings, PHP96277; for increase of total somatic embryo (SE) number relative to the control treatment: within the first four weeks of culture, per 42 starting seedlings
[9] = system: Pioneer inbred GR0112 seedlings / leaf segments; assay: Norflurazon (abscisic acid biosynthesis inhibitor) seedling pre-treatment, leaf transformation (Table 28); type: in vivo, maize; conditions: for # culture response (2 wk): 2 weeks after infection
[10] = 20 mg/l maltose in place of sucrose, 90AE medium, second replicate (inbred GR013D), 30 seedlings, PHP104215
[11] = 2 mg/l in 900 germination medium, 24 seedlings, PHP101093
[12] = 4 mg/l in 900 germination medium, 24 seedlings, PHP101093
[13] = 6 mg/l in 900 germination medium, 24 seedlings, PHP101093
[14] = 900 medium plus 2 mg/l ancymidol
[15] = 1 mg/l in 90AE medium (+ 2 mg/l ancymidol)
[16] = 5 mg/l in 90AE medium (+ 2 mg/l ancymidol)
[17] = 250 mg/l in 90AO medium (900 + 1 mg/l ancymidol), 30 seedlings, PHP97334
[18] = 500 mg/l in 90AO medium (900 + 1 mg/l ancymidol), 30 seedlings, PHP97334
[19] = 4.75 mg/l in 90AE medium (+ 2 mg/l ancymidol)
[20] = 9.5 mg/l in 90AE medium (+ 2 mg/l ancymidol)
[21] = 19 mg/l in 90AE medium (+ 2 mg/l ancymidol)
[22] = 0.1 mg/l in 90AE medium (+ 2 mg/l ancymidol)
[23] = 0.5 mg/l in 90AE medium (+ 2 mg/l ancymidol)
[24] = 3 mg/l in 90AE medium (+ 2 mg/l ancymidol)

OC[C@H]1O[C@H](O[C@H]2[C@H](O)[C@@H](O)C(O)O[C@@H]2CO)[C@H](O)[C@@H](O)[C@@H]1O (mixture of isomers) [Maltose, maltose]
improvement of T0 Txn % relative to seedlings grown on 20 mg/l sucrose ([1]; 20 mg/l maltose as the carbon source, inbred GR013D): 1.3 fold
# T0 plants [1, 10]: 25
# culture response (2 wk) [1, 10]: 650
# culture response (4 wk) [1, 10]: 562
T-DNA score (0-5) [1, 10]: 4
TXN % [1, 10]: 83%

CC(C)(C)[C@@H](O)[C@@H](Cc1ccc(Cl)cc1)n1cncn1 (racemic) [PBZ, paclobutrazol]
# T0 plants [2, 11]: 60
# culture response (2 wk) [2, 11]: 271
# culture response (4 wk) [2, 11]: 224
T-DNA score (0-5) [2, 11]: 3.5
TXN % [2, 11]: 250%
# T0 plants [2, 12]: 40
# culture response (2 wk) [2, 12]: 212
# culture response (4 wk) [2, 12]: 156
T-DNA score (0-5) [2, 12]: 3.5
TXN % [2, 12]: 167%
# T0 plants [2, 13]: 29
# culture response (2 wk) [2, 13]: 151
# culture response (4 wk) [2, 13]: 99
T-DNA score (0-5) [2, 13]: 3.5
TXN % [2, 13]: 121%
trend in the T0 transformation data ([2]; concentrations tested in Table 24 (paclobutrazol 2-6 mg/l, daminozide 50-150 mg/l)): no clear trend
T0 transformation frequencies relative to the control treatment ([2]; higher concentration ranges 10, 20, 50 mg/l, stated in present tense, no data): increase

COc1ccc(C(O)(c2cncnc2)C2CC2)cc1 (stereo not drawn) [Ancymidol, ancymidol]
seedling height after 14 days [3, 14]: 1-2 cm
number of transgenic T0 plantlets compared to the other two treatments (0 and 2 mg/l) ([3]; 900 plus 1 mg/l ancymidol): highest
Number of: Escapes [4]: 3
Number of: Events regenerated [4]: 7
Number of: Leaf segments/pieces responded [4]: 127
Number of: Putative events [4]: 44
Number of: RMCE events [4]: 1
Number of: SSI events [4]: 3
seedling height after 14 days [5, 14]: 1-2 cm
number of transgenic T0 plantlets compared to the other two treatments (0 and 2 mg/l) ([5]; 900 plus 1 mg/l ancymidol): highest
seedling height after 14 days [6, 14]: 1-2 cm
number of transgenic T0 plantlets compared to the other two treatments (0 and 2 mg/l) ([6]; 900 plus 1 mg/l ancymidol): highest

c1ccc(CNc2ncnc3nc[nH]c23)cc1 [BAP, 6-benylamino purine]
increase of T0 Txn % relative to the control seedling germination medium with no cytokinin ([7]; 1 mg/l): 1.4 fold
# T0 plants [7, 15]: 97
# culture response (2 wk) [7, 15]: 135
# culture response (4 wk) [7, 15]: 151
T-DNA score (0-5) [7, 15]: 4
TXN % [7, 15]: 462%
increase of T0 Txn % relative to the control seedling germination medium with no cytokinin ([7]; 5 mg/l): 1.8 fold
# T0 plants [7, 16]: 128
# culture response (2 wk) [7, 16]: 144
# culture response (4 wk) [7, 16]: 172
T-DNA score (0-5) [7, 16]: 4
TXN % [7, 16]: 610%

C[N+](C)(C)CCCl [Chlormequat chloride, chlormequat chloride]
# T0 plants [2, 17]: 145
# culture response (2 wk) [2, 17]: 265
# culture response (4 wk) [2, 17]: 318
T-DNA score (0-5) [2, 17]: 4.5
TXN % [2, 17]: 483%
improvement of T0 transformation frequency (Txn %) relative to the control ([2]; 250 mg/l pretreatment of ED85E seedlings): 1.4 fold
# T0 plants [2, 18]: 108
# culture response (2 wk) [2, 18]: 302
# culture response (4 wk) [2, 18]: 339
T-DNA score (0-5) [2, 18]: 4.5
TXN % [2, 18]: 360%

CN(C)NC(=O)CCC(=O)O [Daminozide, daminozide]
# T0 plants ([2]; in vivo): 71 and 41 and 53
# culture response (2 wk) ([2]; in vivo): 87 and 103 and 70
# culture response (4 wk) ([2]; in vivo): 99 and 103 and 95
T0 transformation frequencies relative to the control treatment ([2]; in vivo): increase
T-DNA score (0-5) ([2]; in vivo): 4
TXN % ([2]; in vivo): 355% and 205% and 265%
trend in the T0 transformation data ([2]; in vivo): no clear trend

O=C(COc1ccc(Cl)cc1)N1CCN(Cc2ccc3c(c2)OCO3)CC1 [Fipexide, fipexide]
# culture response (2 wk) [8, 19]: 768
# culture response (4 wk) [8, 19]: 829
T-DNA score (0-5) [8, 19]: 4
increase of total somatic embryo (SE) number relative to the control treatment ([8]; 4.75 mg/l): 1.4 fold
# culture response (2 wk) [8, 20]: 681
# culture response (4 wk) [8, 20]: 780
T-DNA score (0-5) [8, 20]: 3.5
increase of total somatic embryo (SE) number relative to the control treatment ([8]; 9.5 mg/l): 1.3 fold
# culture response (2 wk) [8, 21]: 636
# culture response (4 wk) [8, 21]: 733
T-DNA score (0-5) [8, 21]: 3.5
increase of total somatic embryo (SE) number relative to the control treatment ([8]; 19 mg/l): 1.2 fold

O=C(Nc1ccccc1)Nc1cnns1 [TDZ, thidiazuron]
# T0 plants [7, 22]: 99
# culture response (2 wk) [7, 22]: 169
# culture response (4 wk) [7, 22]: 121
T-DNA score (0-5) [7, 22]: 4
TXN % [7, 22]: 471%
# T0 plants [7, 23]: 97
# culture response (2 wk) [7, 23]: 182
# culture response (4 wk) [7, 23]: 122
T-DNA score (0-5) [7, 23]: 4
TXN % [7, 23]: 462%
change over the control treatment ([7]; 0.1 and 0.5 mg/l): no increase
somatic embryo response and transformation frequency (Txn %) ([7]; higher concentration ranges, such as 1, 2, 5, or 10 mg/l, stated in present tense, no data): increase

CNc1cnn(-c2cccc(C(F)(F)F)c2)c(=O)c1Cl [norflurazon]
improvement of T0 Txn % relative to the control treatment ([9]; 0.1 mg/l norflurazon, inbred GR0112, within the first two weeks of culture after Agrobacterium infection): 1.1 fold
T-DNA score (0-5) ([9]; norflurazon 0.1 mg/l in 90AE germination medium, inbred GR0112): 4
# culture response (2 wk) ([9]; norflurazon 0.1 mg/l, 22 seedlings): 350
T-DNA score (0-5) ([9]; norflurazon 1 mg/l in 90AE germination medium, inbred GR0112): 1.5
# culture response (2 wk) ([9]; norflurazon 1 mg/l, 7 seedlings): 19
T-DNA score (0-5) ([9]; norflurazon 3 mg/l in 90AE germination medium, inbred GR0112): 2
# culture response (2 wk) ([9]; norflurazon 3 mg/l, 7 seedlings): 45

trans-zeatin
increase of T0 Txn % relative to the control seedling germination medium with no cytokinin ([7]; 1 mg/l): 1.2 fold
# T0 plants [7, 15]: 102
# culture response (2 wk) [7, 15]: 196
# culture response (4 wk) [7, 15]: 177
T-DNA score (0-5) [7, 15]: 4
TXN % [7, 15]: 486%
increase of T0 Txn % relative to the control seedling germination medium with no cytokinin ([7]; 3 mg/l): 1.5 fold
# T0 plants [7, 24]: 130
# culture response (2 wk) [7, 24]: 192
# culture response (4 wk) [7, 24]: 222
T-DNA score (0-5) [7, 24]: 4
TXN % [7, 24]: 619%
